Reference: patent US20230147040A1, “METHOD FOR PROGNOSIS PREDICTION OF SKIN CANCER AND USE THEREOF” (PUBLIC UNIVERSITY CORPORATION NAGOYA CITY UNIVERSITY, priority 2020, published 2023)

Experiments:
Format in all cases: in vivo
Merkel cell carcinoma = assay: Clinical course of Merkel cell carcinoma cases under treatment
cutaneous angiosarcoma = assay: Clinical course of cutaneous angiosarcoma cases under treatment; settings: primary lesion in the head
G6PD = G6PD activity in patient serum (G6PD assay kit); settings: Case 4, avelumab and IMRT in combination
Protocol: For 50 patient serum specimens of 19 cases, the G6PD activity was measured using a G6PD assay kit (Abeam, ab102529). The average activity value of the 50 specimens was 11.45 mU/ml.
The course of Merkel cell carcinoma was confirmed for the cases (Case 1 to 3) of 3 specimens having a particularly high G6PD activity (19 mU/ml or more) among the 50 specimens. In addition, the course of Merkel cell carcinoma was confirmed for a case (Case 4) having a decreased G6PD activity. In FIGS. 6 to 8 shown below, the vertical axis represents the G6PD activity (mU/ml), and the horizontal axis represents the period.

[1] = Case B, wPTX, then changed to eribulin

In the case of COc1cc([C@@H]2c3cc4c(cc3[C@@H](O[C@@H]3O[C@@H]5CO[C@@H](C)O[C@H]5[C@H](O)[C@H]3O)[C@H]3COC(=O)[C@H]23)OCO4)cc(OC)c1O [VP-16], the therapeutic effect (Merkel cell carcinoma; Case 1, stage IV, systemic lymph node metastasis after surgical resection and radiation therapy, combination therapy of CBDGB and VP-16) is reported as “no therapeutic effect was observed”.
In the case of C=C1C[C@@H]2CC[C@@]34C[C@H]5O[C@H]6[C@@H](O3)[C@H]3O[C@H](CC[C@@H]3O[C@H]6[C@H]5O4)CC(=O)C[C@@H]3[C@@H](OC)[C@@H](C[C@H](O)CN)O[C@H]3C[C@H]3O[C@@H](CC[C@@H]1O2)C[C@@H](C)C3=C [eribulin], the clinical course (cutaneous angiosarcoma; [1]) is reported as “pneumothorax (PD) was developed”.
In the case of CC(=O)O[C@@]12CO[C@@H]1C[C@H](O)[C@@]1(C)C(=O)[C@H](O)C3=C(C)[C@@H](OC(=O)[C@H](O)[C@@H](NC(=O)OC(C)(C)C)c4ccccc4)C[C@@](O)([C@@H](OC(=O)c4ccccc4)[C@H]21)C3(C)C [wDTX], the clinical course (cutaneous angiosarcoma; Case C, upon administration of wDTX) is reported as “pneumothorax was developed”.
With CC(=O)O[C@H]1C(=O)[C@@]2(C)[C@H]([C@H](OC(=O)c3ccccc3)[C@]3(O)C[C@H](OC(=O)[C@H](O)[C@@H](NC(=O)c4ccccc4)c4ccccc4)C(C)=C1C3(C)C)[C@]1(OC(C)=O)CO[C@@H]1C[C@@H]2O [wPTX] the clinical course (cutaneous angiosarcoma; Case A, wPTX therapy and radiation therapy) was “the performance status (PS) deteriorated” and the clinical course (cutaneous angiosarcoma; [1]) was “parotid lymph node metastasis was observed”.
In the case of avelumab, the G6PD activity (G6PD) is reported as “significantly reduced”, the clinical outcome (Merkel cell carcinoma; Case 1, stage IV, trial of avelumab after failed combination chemotherapy) is reported as “death of current disease was caused after several months” and the “PET/CT accumulation in right submandibular lymph node” value (Merkel cell carcinoma; Case 4, stage III, avelumab alone, after 3 months) is reported as “enhancement of the accumulation was observed”. For the same molecule, the clinical outcome (Merkel cell carcinoma; Case 4, stage III, avelumab in combination with IMRT) was “complete remission (CR)”.
